The source of these data is US20260183350A1, “ANTIBIOTIC-RESISTANT BACTERIA” (priority 2022, published 2026).

For assay [1], the system named is NDM-1 Enterobacter cloacae. Put plainly: Carbon utilisation assay. Conditions: anaerobic; M9 minimal medium, 0.5% (w/v) carbon source. The assay is classed as cell-based.
The test system of assay [2] is NDM-1 Escherichia coli. In words: Carbon utilisation assay. The assay is classed as cell-based. The conditions noted are these: M9 minimal medium, 0.5% (w/v) carbon source.
The test system of assay [3] is NDM-1 Klebsiella pneumoniae. In words: Carbon utilisation assay. In kind it is cell-based. The conditions noted are these: M9 minimal medium, 0.5% (w/v) carbon source.
Assay [4] concerns NDM-1 Enterobacter cloacae. In words: Nitrogen utilisation assay. In kind it is cell-based. Conditions: anaerobic; M9 minimal medium with glucose, 0.1% (w/v) nitrogen source.
Assay [5] has as its system NDM-1 Escherichia coli. Put plainly: Nitrogen utilisation assay. The conditions noted are these: anaerobic; M9 minimal medium with glucose, 0.1% (w/v) nitrogen source. The assay is classed as cell-based.
The subject of assay [6] is NDM-1 Klebsiella pneumoniae. In words: Nitrogen utilisation assay. In kind it is cell-based. Conditions: M9 minimal medium with glucose, 0.1% (w/v) nitrogen source.
For assay [7], the system named is vancomycin-resistant E. faecalis. In words: VRE nutrient utilization protocol: carbon sources. Conditions: aerobic; VRE minimal medium. In kind it is cell-based, Enterococcus faecalis. The method, then: (§1) VRE minimal media consists of potassium phosphate monobasic (4 g/L), potassium phosphate dibasic (14 g/L), sodium citrate (1 g/L), magnesium sulphate (0.2 g/L), ammonium sulphate (2 g/L), adenosine (0.04 g/L), thymine (0.04 g/L), Kao and Michayluk vitamin solution [Sigma, K3129, 50× Stock](5×), glucose (1 g/L) and amino acid solution [Sigma, R7131, RPMI-1640, 50×](25×). If the study was performed under anaerobic conditions, fumarate (5.2 g/L) was added to increase growth of VRE strains. Carbon-free minimal media was prepared by leaving out glucose while nitrogen-free minimal media was prepared without the amino acid solution. Media was filter sterilized with a 0.22 micron filter and used immediately aerobically or degassed overnight if used anaerobically.
(§2) VRE strains were grown on R2A overnight before the cells were suspended in 0.9% saline to an OD of 0.38 (λ=595 nm). A 10% dilution of the cell suspension was prepared using VRE minimal media to achieve a final well OD of […] (λ=595 nm) greater than the sterile media OD. Both carbon and nitrogen source utilization were evaluated by adding the inoculated media and a filter-sterilised nutrient source solution into a well in a 1:1 ration to a final volume of 100 μL in aerobic tests and 200 μL in anaerobic tests. Carbon sources were tested individually and compared to a carbon-free control. To test nitrogen source utilization, a nitrogen source solution was prepared containing L-alanine (2 g/L), L-arginine (2.5 g/L, L-asparagine (0.71 g/L), L-aspartate (0.25 g/L), L-cysteine (0.625 g/L), L-glutamate (0.25 g/L), L-Glycine (0.125 g/L), L-histidine (0.1875 g/L), L-isoleucine (0.625 g/L), L-leucine (0.625 g/L), L-lysine HCl (0.5 g/L), L-methionine (0.1875 g/L), L-phenylalanine (0.1875 g/L), L-proline (0.25 g/L), L-serine (0.375 g/L), L-threonine (0.25 g/L), L-tryptophan (0.0625 g/L), L-tyrosine (0.29 g/L), L-valine (0.25 g/L), N-acetylglucosamine (2 g/L), and uracil (2.5 g/L). To test the strains' ability to utilize individual nitrogen sources, separate solutions were prepared eliminating one nitrogen source each. The change in growth compared to the complete nitrogen source solution control was used to determine nitrogen utilization. All carbon and nitrogen sources were tested in a technical triplicate for each biological replicate. Aerobic plates were incubated with a plate seal while anaerobic plates were not. The aerobic plate reader was set to read the plate (λ=595 nm, 37° C., 22 flashes per well, orbital shaking of 100 rpm for 15 s prior to each read) every 15 minutes for 24 hours. The anaerobic plate reader read the plate (λ=595 nm, 37° C., stationary) every 15 minutes for 24 hours.

Assay [8] relates to vancomycin-resistant E. faecium. In words: VRE nutrient utilization protocol: carbon sources. In kind it is cell-based, Enterococcus faecium. Conditions: aerobic; VRE minimal medium. On the procedure: as §1, §2
Assay [9] has as its system NDM-1 Enterobacter cloacae. In words: Individual metabolite inhibition assay. In kind it is cell-based. Conditions: LB pH 6.5, 16 hours anaerobic. The method, then: (§3) New Delhi Metallo-β-lactamase 1 (NDM-1) Escherichia coli, NDM-1 Klebsiella pneumoniae, and NDM-1 Enterobacter cloacae were isolated from patients with intestinal CRE colonisation from the Imperial College Healthcare NHS Trust via rectal swab (REC ref. 19/LO/0112). The species were assigned by matrix assisted laser desorption ionization-time of flight (MALDI-TOF) mass spectrometry and later confirmed with 16S rRNA gene sequencing. CRE status was determined using X-pert Carba-R PCR detection (Cepheid, Sunnyvale, CA, USA), (Otter, J. A. et al. Detecting carbapenemase-producing Enterobacterales (CPE): an evaluation of an enhanced CPE infection control and screening programme in acute care. J Antimicrob Chemother 75, 2670-2676 (2020)).
(§4) Each metabolite was tested individually in an inhibition assay against each CRE isolate. Each metabolite was tested at three concentrations: the low, average, and high concentrations that were measured in healthy faeces (from Table 1). LB was supplemented with each metabolite (at the three different concentrations) and compared to a no metabolite control. […] Overnight cultures of each CRE isolate were inoculated at 10^3 CFU/ml. Cultures were incubated anaerobically for 16 hours at 37° C. Growth was measured at OD600 after 16 hours of incubation. Growth of the CRE isolate in the presence of each metabolite was compared to the no metabolite control using a one-way ANOVA followed by Dunn's multiple comparison test.

In assay [10] the test system is NDM-1 Escherichia coli. Put plainly: Individual metabolite inhibition assay. In kind it is cell-based. The conditions noted are these: LB pH 6.5, 16 hours anaerobic. The method, then:
as §3, §4

Assay [11] concerns NDM-1 Klebsiella pneumoniae. In words: Individual metabolite inhibition assay. The assay is classed as cell-based. The conditions noted are these: LB pH 6.5, 16 hours anaerobic. On the procedure: as §3, §4
Assay [12] relates to NDM-1 Escherichia coli. In words: Nutrient preference assay (nutrient mixture). In kind it is cell-based. The conditions noted are these: aerobic; M9 with […] of each nutrient, up to 24 hours.
Where [13] appears, read: at low, average, and high concentrations (Table 1).
Where [14] appears, read: at average and high concentrations (Table 1).

In the case of `CC(=O)N[C@H]1C(O)O[C@H](CO)[C@@H](O)[C@@H]1O` (stereo partly shown) [N-acetylglucosamine], in assay [1], the “Use as sole carbon source to support E. cloacae growth” value is reported as “could use”. For the same compound, the “Use as sole carbon source to support E. coli growth” value in the assay on NDM-1 Escherichia coli [2] (anaerobic) was “could use”. For the same compound, the “Use as sole carbon source to support K. pneumoniae growth” value in [3] (anaerobic) was “could use”. Also, the “Use as sole nitrogen source to support E. cloacae growth” value in assay [4] is given as “could use”. Moreover, the “Use as sole nitrogen source to support E. coli growth” value in the assay on NDM-1 Escherichia coli [5] was “could use”. The “Use as sole nitrogen source to support K. pneumoniae growth” value is “not able to use” in assay [6] (aerobic) and “could use” in [6] (anaerobic). For the same compound, in [7], the “Use as sole carbon source to support E. faecalis growth” value (from here on “Use … to support E. faecalis growth”) is listed as “could use”. Further, the “Use as sole carbon source to support E. faecium growth” value (“Use … to support E. faecium growth” below) in assay [8] was “could use”.
`CCCCC(=O)O` [valerate]: the “E. cloacae growth (OD600) with individual metabolite” value (shortened to “E. cloacae growth (OD600)”) in assay [9] (setting [13]) was “inhibited”. The “E. coli growth (OD600) with individual metabolite” value (“E. coli growth (OD600)” for short) in the assay with NDM-1 Escherichia coli [10] (setting [14]) was “inhibited”. For the same compound, the “K. pneumoniae growth (OD600) with individual metabolite” value (“K. pneumoniae growth (OD600)” for short) in assay [11] (setting [14]) is given as “inhibited”.
As for `O=C[C@H](O)[C@H](O)[C@H](O)CO` [ribose, D-ribose], in assay [1], the “Use as sole carbon source to support E. cloacae growth” value is on record as “could use”. For the same compound, the “Use as sole carbon source to support E. coli growth” value in the assay on NDM-1 Escherichia coli [2] (aerobic) was “able to grow”. The “Use as sole carbon source to support K. pneumoniae growth” value in assay [3] (aerobic) is listed as “able to grow”. Further, the “Use … to support E. faecalis growth” value in [7] is “could use”. Moreover, the “Use … to support E. faecium growth” value in assay [8] was “could use”.
`O=C(CO)[C@@H](O)[C@H](O)[C@H](O)CO` [fructose, D-fructose]: the “Use as sole carbon source to support E. cloacae growth” value in assay [1] is reported as “could use”. Besides, the “Use as sole carbon source to support E. coli growth” value with NDM-1 Escherichia coli [2] (anaerobic) was “could use”. Moreover, the “Use as sole carbon source to support K. pneumoniae growth” value in assay [3] (anaerobic) is recorded as “could use”. The “Use … to support E. faecalis growth” value in [7] is recorded as “could use”. Also, the “Use … to support E. faecium growth” value in [8] is “could use”.
Take `CC(=O)O` [acetate]: the “E. cloacae growth (OD600)” value in [9] (setting [14]) is on record as “inhibited”. The “E. coli growth (OD600)” value in the assay on NDM-1 Escherichia coli [10] (setting [13]) is on record as “inhibited”. In [11] (setting [14]), the “K. pneumoniae growth (OD600)” value is reported as “inhibited”.
With `CCO` [ethanol], the “E. cloacae growth (OD600)” value in [9] (at the high concentration (Table 1)) is recorded as “inhibited”. In the assay on NDM-1 Escherichia coli [10] (setting [14]), the “E. coli growth (OD600)” value is “inhibited”.
Take `CC(C)C(=O)O` [isobutyrate]: in assay [9] (setting [14]), the “E. cloacae growth (OD600)” value is “inhibited”. Besides, in [11] (setting [14]), the “K. pneumoniae growth (OD600)” value is “inhibited”.
Turning to `OC[C@H]1O[C@@](CO)(O[C@H]2O[C@H](CO)[C@@H](O)[C@H](O)[C@H]2O)[C@@H](O)[C@@H]1O` [sucrose], in assay [1], the “Use as sole carbon source to support E. cloacae growth” value is “could use”. Besides, in the assay on NDM-1 Escherichia coli [2] (aerobic), the “Use as sole carbon source to support E. coli growth” value is “able to grow”. In addition, the “Use as sole carbon source to support K. pneumoniae growth” value in assay [3] (anaerobic) was “could use”. In the assay with NDM-1 Escherichia coli [12], the “Utilisation of nutrient by E. coli from nutrient mixture (1H-NMR)” value is given as “moderate utilisation”. Also, in assay [7], the “Use … to support E. faecalis growth” value is listed as “could use”.
On to `O=C[C@H](O)[C@@H](O)[C@@H](O)[C@H](O)CO` [galactose, D-galactose], for which, in assay [1], the “Use as sole carbon source to support E. cloacae growth” value is “could use”. The “Use as sole carbon source to support E. coli growth” value in the assay with NDM-1 Escherichia coli [2] (anaerobic) is reported as “could use”. Moreover, the “Use as sole carbon source to support K. pneumoniae growth” value in assay [3] (anaerobic) is given as “could use”. In [7], the “Use … to support E. faecalis growth” value is “could use”. Besides, the “Use … to support E. faecium growth” value in assay [8] is recorded as “could use”.
Take `OC[C@H]1O[C@H](O[C@H]2O[C@H](CO)[C@@H](O)[C@H](O)[C@H]2O)[C@H](O)[C@@H](O)[C@@H]1O` [trehalose, D-trehalose]: the “Use as sole carbon source to support E. cloacae growth” value in assay [1] is recorded as “could use”. Also, in the assay on NDM-1 Escherichia coli [2] (anaerobic), the “Use as sole carbon source to support E. coli growth” value was “could use”. For the same compound, the “Use as sole carbon source to support K. pneumoniae growth” value in [3] (anaerobic) is given as “could use”. Further, the “Use … to support E. faecalis growth” value in [7] is “could use”. Besides, the “Use … to support E. faecium growth” value in [8] is given as “could use”.
Turning to `OC[C@H]1O[C@H](O[C@H]2[C@H](O)[C@@H](O)[C@H](O)O[C@@H]2CO)[C@H](O)[C@@H](O)[C@@H]1O` [maltose, D-maltose], the “Use as sole carbon source to support E. cloacae growth” value in assay [1] is listed as “could use”. In addition, in the assay with NDM-1 Escherichia coli [2] (aerobic), the “Use as sole carbon source to support E. coli growth” value is given as “able to grow”. Besides, the “Use as sole carbon source to support K. pneumoniae growth” value in [3] (anaerobic) is “could use”. For the same compound, the “Use … to support E. faecalis growth” value in [7] is reported as “could use”. For the same compound, in [8], the “Use … to support E. faecium growth” value is given as “could use”.
Regarding `CCC(=O)O` [propionate], the “E. cloacae growth (OD600)” value in assay [9] (setting [14]) is “inhibited”. Besides, in the assay on NDM-1 Escherichia coli [10] (setting [14]), the “E. coli growth (OD600)” value is recorded as “inhibited”. The “K. pneumoniae growth (OD600)” value in [11] (setting [14]) was “inhibited”.
For the compound `CCCC(=O)O` [butyrate], the “E. cloacae growth (OD600)” value in assay [9] (setting [13]) is recorded as “inhibited”. In addition, the “E. coli growth (OD600)” value in the assay on NDM-1 Escherichia coli [10] (at high concentrations (Table 1)) is on record as “inhibited”. The “K. pneumoniae growth (OD600)” value in assay [11] (setting [13]) is recorded as “inhibited”.
